{"source": "patent US20040198754A1", "about": "“Composition and method for appetite and craving suppression and mood enhancement” (Pro-Health, Inc., priority 2003, published 2004)", "test": "Individual human case reports of oral theobromine tablets (appetite, cravings, mood, energy, weight, side effects), with earlier use of commercial diet products", "type": "in vivo", "from_the_text": "They lost 18 lbs., and did report having a headache. No other side effects were reported.\nNo other side effects were reported.\nThey lost 9 lbs. in 21 days.\nThey also took Metabolife 356® made by Metabolife International Inc. which contains a caffeine-ephedrine combination.\nA person had been taking Xenadrine EFX (ephedrine free, contains synephrine) to try to stop smoking while losing weight, but with little effect on their appetite and nicotine craving. […] They discontinued use of theobromine over a weekend, and noted that the urge to smoke again became strong. […] They were also exercising, and despite quitting smoking at the same time, lost 4.5 pounds, and reported fitting into clothes that they hadn't been able to wear for several years.", "key": {"[1]": {"conditions": "person, 500 mg. theobromine 4 times per day for 21 days"}, "[2]": {"conditions": "person, 2 grams per day for 12 days"}, "[3]": {"conditions": "person, 3,250 mg. tablets per day for 10 days"}, "[4]": {"conditions": "person, 4, 250 mg. tablets four times per day for 21 days"}, "[5]": {"conditions": "person, up to 2 grams daily for 28 days"}, "[6]": {"conditions": "smoker, 750 mg. theobromine per day for three weeks"}}}
{"smiles": "Cn1cnc2c1c(=O)[nH]c(=O)n2C", "note": "[theobromine, 3,7-dimethylxanthine]", "values": [{"measurement": "craving for sweets (self-reported)", "setting": "person with lifelong cravings for sweets, one 250 mg. tablet per day", "value": "no craving for such sweets"}, {"measurement": "appetite (self-reported)", "setting": "person, 500 mg. of Theobromine", "value": "appetite suppression"}, {"measurement": "energy (self-reported)", "setting": "person, 500 mg. of Theobromine", "value": "good energy"}, {"measurement": "mood (self-reported)", "setting": "person, 500 mg. of Theobromine", "value": "sense of well being"}, {"measurement": "appetite and food cravings (self-reported)", "setting": "[1]", "value": "reduced appetite and food cravings"}, {"measurement": "energy (self-reported)", "setting": "[1]", "value": "increased energy without a stimulant high"}, {"measurement": "weight lost", "setting": "[1]", "value": 8, "unit": "lbs."}, {"measurement": "weight lost", "setting": "person, 750 mg. theobromine per day for three weeks, also exercising and quitting smoking", "value": 4.5, "unit": "pounds"}, {"measurement": "appetite (self-reported)", "setting": "[2]", "value": "less appetite"}, {"measurement": "energy, mood and thinking (self-reported)", "setting": "[2]", "value": "more energy, improved mood and clearer thinking"}, {"measurement": "weight loss", "setting": "[2]", "value": 5, "unit": "pound"}, {"measurement": "appetite (self-reported)", "setting": "[3]", "value": "reduced appetite"}, {"measurement": "energy (self-reported)", "setting": "[3]", "value": "excellent energy"}, {"measurement": "mood (self-reported)", "setting": "[3]", "value": "euphoric calmness to their mood"}, {"measurement": "weight lost", "setting": "[3]", "value": 8, "unit": "lbs."}, {"measurement": "appetite (self-reported)", "setting": "[4]", "value": "reduced appetite"}, {"measurement": "mood and energy (self-reported)", "setting": "[4]", "value": "elevated mood, more energy"}, {"measurement": "weight lost", "setting": "[4]", "value": 18, "unit": "lbs."}, {"measurement": "appetite (self-reported)", "setting": "[5]", "value": "lowered appetite"}, {"measurement": "energy or mood (self-reported)", "setting": "[5]", "value": "no energy or mood difference"}, {"measurement": "weight lost", "setting": "person, up to 2 grams daily, in 21 days", "value": 9, "unit": "lbs."}, {"measurement": "appetite (self-reported)", "setting": "[6]", "value": "reduced appetite"}, {"measurement": "cravings for chocolate prior to menses (self-reported)", "setting": "[6]", "value": "reduction in cravings for chocolate"}, {"measurement": "mood (self-reported)", "setting": "[6]", "value": "much calmer and less angry"}, {"measurement": "urge to smoke (self-reported)", "setting": "[6]", "value": "loss of the urge to smoke"}]}
